Assay results published in PMC2817709, “A Novel High-Affinity Sucrose Transporter Is Required for Virulence of the Plant Pathogen Ustilago maydis” (PLoS Biology, 2010).

What was measured:
[1] = molecular target: T1, Srt1 (Mycosarcoma maydis, UniProt A0A0D1E1N5); assay: competition with […]-sucrose uptake in srt1-expressing S. cerevisiae; format: cell-based; conditions: 10 mM competitor (100-fold excess) against 0.1 mM 14C-sucrose; pH 5.0, 29°C
T1 construct: gene UMAG_02374; full-length ORF, 546 residues, 12 predicted TMDs, untagged in vector NEV-E; expressed in invertase-deficient S. cerevisiae SEY2102
T1 sequence (A0A0D1E1N5 entry or part of it): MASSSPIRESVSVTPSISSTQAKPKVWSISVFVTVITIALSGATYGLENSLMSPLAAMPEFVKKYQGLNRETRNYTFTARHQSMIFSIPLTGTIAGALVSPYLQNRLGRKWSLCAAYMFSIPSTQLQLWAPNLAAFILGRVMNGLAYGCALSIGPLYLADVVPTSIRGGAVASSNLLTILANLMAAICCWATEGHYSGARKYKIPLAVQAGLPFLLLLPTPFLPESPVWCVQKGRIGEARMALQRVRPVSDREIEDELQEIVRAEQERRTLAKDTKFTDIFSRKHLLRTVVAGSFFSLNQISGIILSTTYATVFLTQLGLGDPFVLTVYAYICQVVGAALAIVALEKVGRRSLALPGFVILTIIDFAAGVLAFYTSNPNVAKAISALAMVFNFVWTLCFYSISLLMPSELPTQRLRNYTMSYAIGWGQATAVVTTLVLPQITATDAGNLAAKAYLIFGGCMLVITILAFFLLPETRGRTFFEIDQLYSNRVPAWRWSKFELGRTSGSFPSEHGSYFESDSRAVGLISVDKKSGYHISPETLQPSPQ

[2] = test system: OC[C@H]1O[C@@](CO)(O[C@H]2O[C@H](CO)[C@@H](O)[C@H](O)[C@H]2O)[C@@H](O)[C@@H]1O; assay: cells, lysate or membranes; conditions: pH 5.0, 50 mM Na-phosphate, 29°C, H+ symport, labelled compound

| Compound | inhibition of sucrose uptake [1] | Km [2] [µM] |
| --- | --- | --- |
| OC[C@H]1O[C@H](OC[C@H]2O[C@H](O[C@]3(CO)O[C@H](CO)[C@@H](O)[C@@H]3O)[C@H](O)[C@@H](O)[C@@H]2O)[C@H](O)[C@@H](O)[C@H]1O [raffinose] | raffinose was the only alternative compound that caused a minor inhibition of sucrose uptake | – |
| Srt1 (Mycosarcoma maydis) | – | 26 ± 4.3 |
